The target of assay [1] is T1, histamine H1-receptor (guinea pig ileum) (Cavia porcellus, UniProt P31389).
T1 construct: an isolated portion of the guinea pig ileum is secured under tension; from tissue; host or cells: isolated guinea pig ileum
In words: in vitro guinea pig ileum test (histamine H1-antagonist activity). The format is cell-based. The conditions noted are these: isolated guinea pig ileum, magnesium free Tyrode solution, 30° C., 8 min contact, histamine as agonist; read-out: pA2 ileum (converted). Here is the method:
In this test an isolated portion of the guinea pig ileum is secured under tension (500 mg) between an anchorage and a transducer in a 10 ml tissue bath and immersed in magnesium free Tyrode solution with constant aeration at a temperature of 30° C. The output from the transducer is amplified. The amplified output is in turn fed to a flat bed recorder. Measured amounts of histamine are added to the tissue bath so that the histamine concentration increases step-wise until the force of the contraction reaches a maximum. The tissue bath is washed out and filled with fresh magnesium free Tyrode solution containing compound under test. The solution is left in contact with the tissue for 8 min. and measured amounts of histamine are added again until a maximum contraction is recorded. The assay is repeated with increasing concentrations of test compound and the dose of histamine giving 50% of maximum contraction is noted. A dose ratio (DR) was calculated by comparing the concentrations of histamine required to produce 50% maximum response in the absence and in the presence of the antagonist. A plot of Log DR-1 against Log D (the concentration of compound under test) is made and the point of intersection with the Log (DR-1) ordinate is taken as the measure of the activity (pA2 value).

Another assay deals with histamine H1-receptor. In words: in vivo inhibition of histamine induced bronchoconstriction in anaesthetised guinea pigs. The settings on record: intravenous antagonist dose giving DR-1 = 10, histamine dose-response 5 minutes after antagonist. The protocol:
Guinea pigs of either sex are anaesthetised by intraperitoneal injection of sodium pentobarbitone, 90 mg/kg. The trachea is cannulated. The animal is respired artificially with a fixed volume of air just adequate to inflate the lungs. The pressure needed to inflate the lungs is monitored from the respiratory system using a pressure transducer. Intravenous injection of histamine causes dose-dependent increases in the pressure to inflate the lungs reflecting the bronchoconstrictor action of histamine. Responses to histamine can be antagonised using histamine H1 -receptor antagonists.
Dose-response curves to histamine are established at 20, 40, 80, 160 and 320 nmols/kg. Antagonists are then administered by intravenous injection and 5 minutes later a new histamine dose-response curve is established increasing the doses of histamine as necessary. The effect of the antagonist can be quantified by the displacement, to the right, of the histamine dose-response curve, expressed as a dose-ratio. A series of doses of antagonists may be given to each animal allowing calculation of dose-ratios for each dose of antagonist.

From patent US4863933A, “3-hydroxypyridines” (Smith Kline & French Laboratories Limited, priority 1986, dated 1989) come the findings set out here.

T1 sequence (P31389 whole entry): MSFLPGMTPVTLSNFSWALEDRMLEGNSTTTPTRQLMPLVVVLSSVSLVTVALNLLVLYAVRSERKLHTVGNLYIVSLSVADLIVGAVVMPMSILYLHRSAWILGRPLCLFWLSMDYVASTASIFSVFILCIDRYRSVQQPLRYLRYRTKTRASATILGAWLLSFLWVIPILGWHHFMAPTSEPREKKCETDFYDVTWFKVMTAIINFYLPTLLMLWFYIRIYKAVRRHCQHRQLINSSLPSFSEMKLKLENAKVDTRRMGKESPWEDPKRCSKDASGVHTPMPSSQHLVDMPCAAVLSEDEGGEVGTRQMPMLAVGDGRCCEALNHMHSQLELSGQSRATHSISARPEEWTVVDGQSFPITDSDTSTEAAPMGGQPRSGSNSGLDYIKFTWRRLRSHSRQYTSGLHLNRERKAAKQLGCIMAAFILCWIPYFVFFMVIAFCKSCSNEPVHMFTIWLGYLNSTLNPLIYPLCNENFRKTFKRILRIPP

With `Oc1cc(Cc2cccnc2)cnc1NCCCC1CCCc2cccnc21` (stereo not shown) [2(e), 2-[3-(5,6,7,8-Tetrahydroquinol-8-yl)propylamino]-3-hydroxy-5-(pyrid-3-ylmethyl)pyridine], the Kb in assay [1] was 9.55 nM. Further, in the assay on histamine H1-receptor, the “Guinea Pig bronchoconstriction DR-1 = 10” value was 0.038 μm/kg.
Taken in the same sequence, the figures for `Cc1cc(Br)cnc1CCCCNc1ncc(Cc2cccnc2)cc1O` [1(h), 2-[4-(5-Bromo-3-methylpyrid-2-yl)butylamino]-3-hydroxy-5-(pyrid-3-ylmethyl)pyridine] were 1.95 nM and 0.016 μm/kg.
Take `Cc1cc(Br)cnc1CCCCNc1ncc(Cc2cccnc2)cc1OP(=O)(O)O` [1(i), 2-[4-(5-Bromo-3-methylpyrid-2-yl)butylamino]-5-(pyrid-3-ylmethyl)pyrid-3-yloxyphosphate]: the Kb in assay [1] is 8.13 nM. For the same molecule, in the assay on histamine H1-receptor, the “Guinea Pig bronchoconstriction DR-1 = 10” value was determined as 0.033 μm/kg.
With `Cc1cc(Br)cnc1CCCNc1ncc(Cc2cccnc2)cc1O` [3(h), 2-[3-(5-Bromo-3-methylpyrid-2-yl)-propylamino]-3-hydroxy-5-(pyrid-3-ylmethyl)pyridine], in assay [1], the Kb was 1.51 nM.
